Values of other authors in US4312857A, “Novel derivatives of beta-endorphin, intermediates therefor and compositions and methods employing said derivatives” (The United States of America as represented by the Veterans, priority 1977, dated 1982).

Experiments:
rat = settings: injected directly into the brain of the rat
[1] = system: partially purified brain opiate receptor sites

**Q.** With “H-Tyr-Gly-Gly-Phe-Met-OH [methionine enkephalin]” as the substance, how does the analgesic effect (rat) read?
**A.** Its analgesic effect is “weak analgesic agent of short duration”.

**Q.** And the “binding to partially purified brain opiate receptor sites” value [1]?
**A.** The value was “binds stereo-specifically”.
